ChEMBL document CHEMBL5291721, “A preclinical secondary pharmacology resource illuminates target-adverse drug reaction associations of marketed drugs” (Nat Commun, 2023)

Assays:
[1] = molecular target: T1, Alpha-2B adrenergic receptor (Homo sapiens, UniProt P18089)
T1 sequence (P18089 whole entry): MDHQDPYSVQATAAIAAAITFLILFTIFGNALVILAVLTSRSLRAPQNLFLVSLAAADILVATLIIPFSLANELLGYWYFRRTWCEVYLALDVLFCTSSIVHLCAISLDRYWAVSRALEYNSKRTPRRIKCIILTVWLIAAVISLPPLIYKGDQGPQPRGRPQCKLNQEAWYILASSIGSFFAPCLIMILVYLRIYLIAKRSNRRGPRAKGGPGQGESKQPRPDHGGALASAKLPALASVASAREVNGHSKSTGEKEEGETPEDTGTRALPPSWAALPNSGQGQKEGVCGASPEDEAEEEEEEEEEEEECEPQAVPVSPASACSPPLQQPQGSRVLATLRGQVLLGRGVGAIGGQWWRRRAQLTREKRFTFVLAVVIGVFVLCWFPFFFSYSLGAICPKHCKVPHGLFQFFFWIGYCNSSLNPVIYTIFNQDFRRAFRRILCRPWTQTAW

[2] = molecular target: T2, Muscarinic acetylcholine receptor M2 (Homo sapiens, UniProt P08172); assay type: functional, cell-based
T2 sequence (P08172 whole entry): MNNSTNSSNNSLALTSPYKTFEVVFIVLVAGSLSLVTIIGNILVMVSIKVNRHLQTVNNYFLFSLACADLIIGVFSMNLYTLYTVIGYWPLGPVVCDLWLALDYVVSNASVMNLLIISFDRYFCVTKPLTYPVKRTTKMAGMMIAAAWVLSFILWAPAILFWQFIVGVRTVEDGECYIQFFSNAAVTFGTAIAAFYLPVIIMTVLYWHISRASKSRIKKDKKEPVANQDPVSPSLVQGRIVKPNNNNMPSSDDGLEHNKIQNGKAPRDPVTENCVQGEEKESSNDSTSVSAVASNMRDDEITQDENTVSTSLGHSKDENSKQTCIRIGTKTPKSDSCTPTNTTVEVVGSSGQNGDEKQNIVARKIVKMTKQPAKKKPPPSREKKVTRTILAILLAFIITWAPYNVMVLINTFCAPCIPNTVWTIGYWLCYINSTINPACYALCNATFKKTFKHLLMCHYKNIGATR

[3] = molecular target: Muscarinic acetylcholine receptor M3 (Homo sapiens, UniProt P20309)
Chain of Muscarinic acetylcholine receptor M3 (P20309 whole entry): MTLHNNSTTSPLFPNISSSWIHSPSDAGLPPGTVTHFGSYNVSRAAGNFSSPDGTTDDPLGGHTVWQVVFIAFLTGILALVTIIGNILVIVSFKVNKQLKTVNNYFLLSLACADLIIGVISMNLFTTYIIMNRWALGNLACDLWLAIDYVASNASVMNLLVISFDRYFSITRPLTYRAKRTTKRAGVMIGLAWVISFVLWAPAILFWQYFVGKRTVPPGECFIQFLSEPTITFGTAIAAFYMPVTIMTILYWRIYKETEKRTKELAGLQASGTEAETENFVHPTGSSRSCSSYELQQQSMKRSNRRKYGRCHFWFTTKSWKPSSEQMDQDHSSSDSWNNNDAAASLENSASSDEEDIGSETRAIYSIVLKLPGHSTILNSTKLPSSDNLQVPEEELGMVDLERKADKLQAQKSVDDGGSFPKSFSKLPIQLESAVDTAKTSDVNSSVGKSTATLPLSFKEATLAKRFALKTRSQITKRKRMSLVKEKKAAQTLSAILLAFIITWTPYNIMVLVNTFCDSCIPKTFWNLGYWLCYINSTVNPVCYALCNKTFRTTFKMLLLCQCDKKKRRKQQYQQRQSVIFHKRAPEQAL

Endothelin-1 receptor = molecular target: T3, Endothelin-1 receptor (Homo sapiens, UniProt P25101)
T3 sequence (P25101 whole entry): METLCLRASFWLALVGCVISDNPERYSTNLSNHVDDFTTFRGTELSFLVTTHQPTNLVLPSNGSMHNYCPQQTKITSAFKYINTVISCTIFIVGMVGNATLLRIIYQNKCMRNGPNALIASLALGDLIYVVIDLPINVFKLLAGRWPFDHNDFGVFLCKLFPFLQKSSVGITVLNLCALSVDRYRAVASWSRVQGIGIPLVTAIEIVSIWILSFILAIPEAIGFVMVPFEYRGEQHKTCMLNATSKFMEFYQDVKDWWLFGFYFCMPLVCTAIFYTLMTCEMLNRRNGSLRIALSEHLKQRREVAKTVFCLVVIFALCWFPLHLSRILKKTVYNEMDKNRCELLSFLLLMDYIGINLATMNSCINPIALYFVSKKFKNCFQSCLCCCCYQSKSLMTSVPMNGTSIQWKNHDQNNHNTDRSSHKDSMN

[4] = molecular target: Sodium-dependent dopamine transporter (Homo sapiens, UniProt Q01959)
Chain of Sodium-dependent dopamine transporter (Q01959 whole entry): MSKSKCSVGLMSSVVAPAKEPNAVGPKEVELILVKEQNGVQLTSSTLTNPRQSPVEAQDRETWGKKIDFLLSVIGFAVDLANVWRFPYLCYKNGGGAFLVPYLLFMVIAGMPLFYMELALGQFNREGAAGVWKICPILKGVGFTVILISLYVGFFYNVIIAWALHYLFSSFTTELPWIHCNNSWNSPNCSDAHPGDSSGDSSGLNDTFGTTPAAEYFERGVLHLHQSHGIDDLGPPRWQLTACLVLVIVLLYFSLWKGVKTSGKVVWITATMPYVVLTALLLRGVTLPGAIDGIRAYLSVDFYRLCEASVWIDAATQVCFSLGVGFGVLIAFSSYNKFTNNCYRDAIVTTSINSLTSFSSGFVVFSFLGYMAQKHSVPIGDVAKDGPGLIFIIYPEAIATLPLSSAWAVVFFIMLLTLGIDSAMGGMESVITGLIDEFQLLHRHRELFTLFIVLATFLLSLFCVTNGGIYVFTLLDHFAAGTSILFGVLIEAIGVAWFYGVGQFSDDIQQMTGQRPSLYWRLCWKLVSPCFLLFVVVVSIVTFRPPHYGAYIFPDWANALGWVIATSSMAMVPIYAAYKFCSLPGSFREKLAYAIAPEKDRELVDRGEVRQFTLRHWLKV

D(3) dopamine receptor = D(3) dopamine receptor (Homo sapiens, UniProt P35462)
Chain of D(3) dopamine receptor (P35462 whole entry): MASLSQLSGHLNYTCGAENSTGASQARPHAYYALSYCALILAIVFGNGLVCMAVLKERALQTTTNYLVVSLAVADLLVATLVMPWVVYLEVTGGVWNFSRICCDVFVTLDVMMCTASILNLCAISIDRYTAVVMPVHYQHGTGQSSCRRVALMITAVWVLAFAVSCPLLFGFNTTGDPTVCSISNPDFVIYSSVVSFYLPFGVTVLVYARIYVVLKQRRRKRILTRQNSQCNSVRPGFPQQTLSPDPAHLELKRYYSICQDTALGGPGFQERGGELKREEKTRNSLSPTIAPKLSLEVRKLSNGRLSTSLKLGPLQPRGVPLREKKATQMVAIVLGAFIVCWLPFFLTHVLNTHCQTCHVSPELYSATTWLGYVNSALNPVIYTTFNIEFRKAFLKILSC

[5] = molecular target: Glutamate receptor ionotropic, NMDA 1 (Rattus norvegicus, UniProt P35439)
[6] = molecular target: T4, Amine oxidase [flavin-containing] A (Homo sapiens, UniProt P21397); assay type: functional
T4 sequence (P21397 whole entry): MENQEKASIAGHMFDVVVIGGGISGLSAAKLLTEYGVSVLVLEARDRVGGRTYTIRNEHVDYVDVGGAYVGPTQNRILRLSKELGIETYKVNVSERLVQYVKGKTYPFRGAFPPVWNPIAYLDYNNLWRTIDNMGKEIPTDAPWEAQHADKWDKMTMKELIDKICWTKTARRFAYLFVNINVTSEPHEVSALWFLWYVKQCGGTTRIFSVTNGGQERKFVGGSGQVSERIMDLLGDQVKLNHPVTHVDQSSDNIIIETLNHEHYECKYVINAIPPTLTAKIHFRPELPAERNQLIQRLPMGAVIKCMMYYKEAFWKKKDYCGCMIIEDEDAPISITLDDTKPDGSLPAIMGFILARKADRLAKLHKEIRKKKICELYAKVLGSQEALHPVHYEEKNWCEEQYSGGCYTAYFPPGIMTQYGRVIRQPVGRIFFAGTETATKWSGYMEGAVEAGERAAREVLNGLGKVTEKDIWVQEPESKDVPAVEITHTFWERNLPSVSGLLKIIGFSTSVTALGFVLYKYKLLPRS

Mu-type opioid receptor = Mu-type opioid receptor (Homo sapiens, UniProt P35372)
Chain of Mu-type opioid receptor (P35372 whole entry): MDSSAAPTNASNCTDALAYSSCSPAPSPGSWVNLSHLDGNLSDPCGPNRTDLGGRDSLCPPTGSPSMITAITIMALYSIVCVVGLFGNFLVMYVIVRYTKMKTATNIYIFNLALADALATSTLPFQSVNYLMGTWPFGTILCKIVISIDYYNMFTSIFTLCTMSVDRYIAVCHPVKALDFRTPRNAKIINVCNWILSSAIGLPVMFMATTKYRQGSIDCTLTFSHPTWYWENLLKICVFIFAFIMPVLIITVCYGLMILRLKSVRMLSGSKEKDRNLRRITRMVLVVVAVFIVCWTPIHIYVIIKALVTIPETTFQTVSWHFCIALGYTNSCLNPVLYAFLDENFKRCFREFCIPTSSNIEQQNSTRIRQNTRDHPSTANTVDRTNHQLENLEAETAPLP

[7] = molecular target: T5, Alpha-1A adrenergic receptor (Homo sapiens, UniProt P35348); assay type: functional, cell-based
T5 sequence (P35348 whole entry): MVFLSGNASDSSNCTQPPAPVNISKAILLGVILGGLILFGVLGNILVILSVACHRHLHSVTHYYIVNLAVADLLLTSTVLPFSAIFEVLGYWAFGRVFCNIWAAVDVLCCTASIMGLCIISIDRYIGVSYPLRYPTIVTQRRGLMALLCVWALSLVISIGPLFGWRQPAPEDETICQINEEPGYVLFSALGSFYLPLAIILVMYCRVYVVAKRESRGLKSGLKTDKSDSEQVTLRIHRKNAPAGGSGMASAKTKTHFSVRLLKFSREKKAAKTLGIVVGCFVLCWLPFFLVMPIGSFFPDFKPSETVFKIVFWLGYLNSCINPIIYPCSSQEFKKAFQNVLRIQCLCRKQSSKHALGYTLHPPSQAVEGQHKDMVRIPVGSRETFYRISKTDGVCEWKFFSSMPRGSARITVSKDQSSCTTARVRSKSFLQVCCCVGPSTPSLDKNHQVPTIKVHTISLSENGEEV

D(1A) dopamine receptor = D(1A) dopamine receptor (Homo sapiens, UniProt P21728)
Chain of D(1A) dopamine receptor (P21728 whole entry): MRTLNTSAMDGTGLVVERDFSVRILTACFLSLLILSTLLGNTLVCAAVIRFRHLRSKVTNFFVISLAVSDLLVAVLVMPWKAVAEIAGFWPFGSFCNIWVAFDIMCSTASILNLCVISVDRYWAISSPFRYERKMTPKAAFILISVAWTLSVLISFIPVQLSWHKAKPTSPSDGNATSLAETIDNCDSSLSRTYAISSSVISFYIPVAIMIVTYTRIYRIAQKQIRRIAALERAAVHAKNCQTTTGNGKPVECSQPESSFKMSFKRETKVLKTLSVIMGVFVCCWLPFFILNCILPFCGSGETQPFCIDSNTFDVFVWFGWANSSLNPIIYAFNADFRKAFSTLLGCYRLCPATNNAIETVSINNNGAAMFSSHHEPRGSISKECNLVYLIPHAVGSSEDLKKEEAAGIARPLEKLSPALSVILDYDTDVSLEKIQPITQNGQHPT
Also: assay procedure not described here.

| Structure (SMILES) | AC50 [1] [µM] | AC50 [2] [µM] | AC50 [3] [µM] | AC50 (Endothelin-1 receptor) [µM] | AC50 [4] [µM] | AC50 (D(3) dopamine receptor) [µM] | AC50 [5] [µM] | AC50 [6] [µM] | AC50 (Mu-type opioid receptor) [µM] | AC50 [7] [µM] | AC50 (D(1A) dopamine receptor) [µM] |
| --- | --- | --- | --- | --- | --- | --- | --- | --- | --- | --- | --- |
| CCOCC(O)COc1ccc(NC(=O)CC[S+](C)C)cc1 (centres undefined) | > 30 | > 30 | > 30 | > 30 | > 30 |  |  |  |  |  |  |
| CN(C)CCC=C1c2ccccc2CCc2ccccc21 [AMITRIPTYLINE] |  |  |  | > 30 | 13.8 | 0.147 | > 10 | > 30 | 9.46 |  |  |
| O=C(O)[C@H]1/C(=C/CO)O[C@@H]2CC(=O)N21 [CLAVULANIC ACID] | > 30 | > 30 | > 30 | > 30 | > 30 |  |  |  |  |  |  |
| NCC1(CC(=O)O)CCCCC1 [GABAPENTIN] |  | > 30 |  | > 30 | > 30 | > 30 | > 10 | > 30 | > 30 | > 30 | > 30 |
| CCOc1ccccc1OCCN[C@H](C)Cc1ccc(OC)c(S(N)(=O)=O)c1 [TAMSULOSIN] | 1.9 | > 10 | > 30 |  | > 30 |  | > 10 |  |  |  |  |
| CC(C)C[C@H](NC(=O)[C@H](Cc1ccccc1)NC(=O)c1cnccn1)B(O)O [BORTEZOMIB] | > 30 | > 30 | > 30 |  | > 30 |  | > 30 |  |  |  |  |
| C[C@H](CCC(=O)O)[C@H]1CC[C@H]2[C@@H]3[C@H](O)C[C@@H]4C[C@H](O)CC[C@]4(C)[C@H]3CC[C@]12C [CHENODIOL] | > 30 | > 30 | > 30 | > 30 | > 30 |  |  |  |  |  |  |
| Nc1c2c(nc3ccccc13)CCCC2O (centres undefined) [VELNACRINE] | > 30 | > 30 | > 30 | > 30 | > 30 |  |  |  |  |  |  |
| C#CCN(C)Cc1ccccc1 [PARGYLINE] | > 30 | > 30 | > 30 |  |  | > 30 | > 30 |  | > 30 |  | > 30 |
| CN(C)CCCC1(c2ccc(F)cc2)OCc2cc(C#N)ccc21 (centres undefined) [CITALOPRAM] |  |  |  | > 30 |  |  | > 10 | > 30 |  |  |  |
| CO[C@@H]1[C@@H](OC(N)=O)[C@@H](O)[C@H](Oc2ccc3c(O)c(NC(=O)c4ccc(O)c(CC=C(C)C)c4)c(=O)oc3c2C)OC1(C)C [NOVOBIOCIN] | > 30 | > 30 | > 30 | > 30 | > 30 |  |  |  |  |  |  |
| CN(C)CCN(Cc1ccccc1)c1ccccn1 [TRIPELENNAMINE] | 11 | > 10 | > 30 |  | 1.3 |  | > 10 | > 30 | > 30 | > 30 | 19.4 |
| C=CC1=C(C(=O)O)N2C(=O)[C@@H](NC(=O)/C(=N\O)c3csc(N)n3)[C@H]2SC1 | > 10 | > 10 | > 30 |  | > 30 |  | > 10 |  |  |  |  |
| CCOC(=O)[C@H](CCc1ccccc1)N[C@@H](C)C(=O)N1Cc2ccccc2C[C@H]1C(=O)O |  | > 10 |  | > 30 | > 10 | > 30 | > 10 | > 30 | > 30 | > 30 | > 30 |
| NCCCNCCSP(=O)(O)O [AMIFOSTINE] |  | > 30 |  | > 30 | > 30 |  | > 30 |  |  |  |  |
| O=c1[nH]cc(F)c(=O)[nH]1 [FLUOROURACIL] |  |  |  | > 30 | > 30 | > 30 |  | > 30 | > 30 | > 30 |  |
| CC(=O)Oc1ccccc1C(=O)O [ASPIRIN] |  | > 30 |  | > 30 | > 30 | > 30 | > 10 | > 30 | > 30 | > 30 | > 30 |
| CNC1(C)C2CCC(C2)C1(C)C (centres undefined) [MECAMYLAMINE] | > 10 | > 10 | > 30 |  | > 10 |  | > 10 |  |  |  |  |
| CS(=O)(=O)Nc1ccc([N+](=O)[O-])cc1Oc1ccccc1 [NIMESULIDE] |  | > 30 |  | > 30 | 9 | > 30 | > 30 | > 30 | > 30 | > 30 | > 30 |
| Cc1c(C)c2c(c(C)c1O)CCC(C)(COc1ccc(CC3SC(=O)NC3=O)cc1)O2 (centres undefined) [TROGLITAZONE] |  | > 30 |  | > 30 | 23.7 | 6.23 | > 30 | > 30 | 14 | 3.96 | 8.59 |
| O=C1[C@@H]2[C@H]3CC[C@H](C3)[C@@H]2C(=O)N1C[C@@H]1CCCC[C@H]1CN1CCN(c2nsc3ccccc23)CC1 [LURASIDONE] |  |  |  | > 30 |  | 0.0042 |  | > 30 | > 10 |  |  |
| O=C(Cc1cccs1)N[C@@H]1C(=O)N2C(C(=O)[O-])=C(C[n+]3ccccc3)CS[C@H]12 [CEPHALORIDINE] | > 30 | > 30 | > 30 |  |  | > 30 | > 30 | > 30 | > 30 |  | > 30 |
| C[C@H](Cn1cnc2c(N)ncnc21)OCP(=O)(O)O [TENOFOVIR ANHYDROUS] | > 30 | > 30 | > 30 |  | > 30 |  | > 30 |  |  |  |  |
| COC(=O)CCc1ccc(OCC(O)CNC(C)C)cc1 (centres undefined) [ESMOLOL] |  | > 30 |  | > 30 | > 30 |  | > 30 |  |  |  |  |
| CN1CC2c3ccccc3Oc3ccc(Cl)cc3C2C1 (centres undefined) [ASENAPINE] |  | 19 | > 30 | > 30 | 11 |  |  |  |  |  |  |
| Nc1nnc(-c2cccc(Cl)c2Cl)c(N)n1 [LAMOTRIGINE] |  | > 10 |  | > 30 | > 10 |  | > 10 |  |  |  |  |
